{"source": "patent US12594319B2", "about": "“Pharmaceutical development” (HELPERBY THERAPEUTICS LIMITED, priority 2019, dated 2026)", "key": {"[1]": {"system": "sensitive micro-organisms", "conditions": "cited from earlier work; for Potency: general value of the art"}, "[2]": {"conditions": "buffered aqueous system", "method": "A two component buffer system consisting of acetate and phosphate (5 mM acetate and 5 mM phosphate) was used to cover a pH range of about 4.5 to 7.5. After complete dissolution of the solid, the pH was adjusted to the desired pH value using hydrochloric acid."}, "[3]": {"experiment": "Solubility screening in organic solvent system (tert-butanol/water)", "method": "Substances were dissolved in an appropriate volume to justify the use of an organic solvent based system (reduction of the fill volume per vial by a factor of 4, ˜5 mL fill volume in organic solvent based systems). Samples were tested for stability of the APIs in solution when stored for 24 h at 2 to 8° C. and 25° C. […] The chromatographic conditions were the same as set out above for Example 1A."}, "[4]": {"experiment": "Determination of free colistin (turbidity) according to European Pharmacopeia 9.5", "assay_type": "physicochemical", "conditions": "free colistin assay", "method": "Determination of free colistin was performed according to European Pharmacopeia 9.5 (July 2017:0319).\n1.0 g of hydrazine sulfate was dissolved in purified water, diluted to 100.0 mL with the same solvent and allowed to stand for 4-6 h.\n2.5 g of hexamethylene tetramine was dissolved in 25.0 mL purified water in a 100 mL glass-stoppered volumetric flask.\n25.0 mL hydrazine sulfate solution was added to the hexamethylene tetramine solution in the volumetric flask, mixed and allowed to stand for 24 h.\n15.0 mL of the primary opalescent suspension was diluted to 1000.0 mL with purified water. This suspension was freshly prepared and stored for a maximum of 24 h.\nReference suspensions according to Table 6 were prepared for calibration of the turbidity meter.\nOne lyophilisate containing 240 mg CMS was dissolved in 10 mL purified water. CMS BDS was analyzed by dissolving 80 mg of CMS BDS in 3 mL purified water. After complete dissolution, 0.1 mL […] silicotungstic acid was added to 3 mL of the test sample (either reconstituted lyophilisate or dissolved BDS). The turbidity of the sample was recorded after 10 s-20 s.\nDetermination of free colistin was performed according to European Pharmacopeia 9.5 (July 2017:0319). The hydrazine sulfate solution, hexamethylene tetramine solution, primary opalescent suspension, standard of opalescence, and reference suspensions were prepared as in Example 2. […]"}, "[5]": {"conditions": "aqueous solutions; Wallace et al. 2010; cited from earlier work"}, "[6]": {"experiment": "RP-HPLC for related substances of zidovudine (Ph. Eur. 9.5) after lyophilisation", "assay_type": "physicochemical", "conditions": "aqueous lyo solution", "method": "RP-HPLC chromatography for quantity and purity of zidovudine was performed according to monograph Ph. Eur. 9.5 (January 2017:1059). The following chromatographic conditions were used for the analysis.\n• XTerra RP18 VanGuard cartridge, 3.9×5 mm, 5 μm Mobile phase A 2 g/L ammonium acetate, pH 6.8 Mobile phase B Acetonitrile\nMobile phase A was prepared by dissolving 2 g ammonium acetate in 800 mL of purified water, pH was adjusted to 6.8 with acetic acid. The solution was made up to 1 L with purified water.\nDiluent was prepared by mixing 76 mL mobile phase A with 4 mL of ACN and 20 mL methanol.\nReference solution A: 2 mg of impurity C and 2 mg of impurity B were dissolved in 50 mL diluent. 1 mL of this solution was diluted with 19 mL diluent."}}, "note": "“And” between values parts separate entries of the source, which are not always exact repeats. Equal entries are not always repeated.", "data": [{"molecule": "colistin sulfate", "values": [{"measurement": "Potency", "setting": "[1]", "value": "around 20,500 IU/mg"}]}, {"molecule": "polymyxin B", "values": [{"measurement": "International Units equivalent to 1 mg", "setting": "[1]; generally accepted in the art", "value": "approximately 10,000 IU"}]}, {"molecule": "colistimethate sodium [CMS]", "values": [{"measurement": "Effect on pH of the solution / buffer capacity", "setting": "[2]", "value": "strong buffer capacity at neutral to slightly basic pH values"}, {"measurement": "Solubility in TBA/water, all TBA concentrations", "setting": "[3]", "value": "soluble in all TBA concentrations"}, {"measurement": "Dissolution time in TBA/water", "setting": "[3]; 20% to 60% (w/w) TBA, 5 mL", "value": "within a few minutes"}, {"measurement": "Acceptance criteria/not more turbid than standard of opalescence II", "setting": "[4]; Table 8 (Example 2)", "value": "yes"}, {"measurement": "Turbidity", "setting": "[4]; Table 8, organic solvent system lyophilisation (Example 2)", "value": 5.5, "unit": "NTU"}, {"measurement": "Potency", "setting": "[1]", "value": "around 12,500 IU/mg"}, {"measurement": "Concentration in aqueous solution above which CMS is stable against hydrolysis due to the formation of micelles", "setting": "[5]", "value": "above 3.5 mM and ~5.7 mg/mL"}]}, {"molecule": "Cc1cn([C@H]2C[C@H](N=[N+]=[N-])[C@@H](CO)O2)c(=O)[nH]c1=O", "note": "[Zidovudine]", "values": [{"measurement": "Stability of zidovudine during the lyophilisation process", "setting": "[6]", "value": "stable during the lyophilisation process"}]}]}
